The values that follow come from patent publication US20060281690A1, “Crystalline (2E,4S)-4-[(N-{[(2R)-1-isopropylpiperidin-2-yI]-carbonyl}-3-methyl-L-valyl)(methyl)amino]-2,5-dimethylhex-2-enoic acid and its pharmaceutical uses” (Eisai Co. Ltd., priority 2005, published 2006).

Series [1] relates to several cell lines, including human lung carcinoma, human colon carcinoma and human melanoma. Conditions: several cell lines incl. human lung carcinoma; cited from earlier work.
Series [2] is described as follows: Solid state stability studies, 21 days. The format is physicochemical. Conditions: for Total impurities: HPLC area-%. Here is the method:
The solid-state stability of crystalline E7974-form M1—unsolvated was evaluated for 21 days. […] In addition, a different peak appeared at only a 0.12% level for sample stored at 40° C. and exposed to 75% relative humidity.

Series [3] can be described thus: Hygroscopicity studies (vapor sorption isotherm). Type of series: physicochemical.
The mark [4] stands for this setting: 25° C., visible light (6.8 million lux-hours), 21 d.

Several values for one entry are separate records, joined by “and”; a condition that tells them apart may be missing. Equal entries are not always repeated.

With `CN[C@H](C(=O)N[C@H](C(=O)N(C)[C@H](/C=C(\C)C(=O)O)C(C)C)C(C)(C)C)C(C)(C)c1cn(C)c2ccccc12` [Hemiasterlin], the antitumor activity result in series [1] is on record as “exhibits antitumor activity”.

As to `C/C(=C\[C@H](C(C)C)N(C)C(=O)[C@@H](NC(=O)[C@H]1CCCCN1C(C)C)C(C)(C)C)C(=O)O` [Crystalline E7974-form M1—unsolvated, (2E,4S)-4-[(N-{[(2R)-1-isopropylpiperidin-2-yl]carbonyl}-3-methyl-L-valyl)(methyl)amino]-2,5-dimethylhex-2-enoic acid], the Total impurities in series [2] (25° C., light shield, 21 d) turned out to be 0.76%; in series [2] (setting [4]), 0.87%; in series [2] (40° C., 75% RH, 21 d), 0.89%; in series [2] (60° C., light shield, 21 d) it was 0.78%; in series [2] (Initial, sum of all impurities >0.05%), 0.72%; in series [2] (−20° C., light shield, 21 d) it was 0.72%. Also, the Wt/Wt in series [2] (25° C., light shield, 21 d, control: −20° C. light shielded sample) turned out to be 100.3%; in series [2] (setting [4]) it was 99.9%; in series [2] (40° C., 75% RH, 21 d), 102.2%; in series [2] (60° C., light shield, 21 d), 100.9%. Besides, in series [2] (40° C., 75% relative humidity, 21 days), the “level of a different new impurity peak” value was found to be 0.12%. Further, the “level of new impurity peaks” value in series [2] (21 days at 25° C. and visible light, two new peaks) was 0.05% and 0.09%. Moreover, the “changes in the impurity profile” value in series [2] (shielded from light, stored at 25 and 60° C., 21 days) was “No significant changes”. In series [3] (at 70% RH, 25° C., FIG. 2), this compound registered an increase in weight of 1.9%. For the same compound, the deliquescence entry in series [3] (high relative humidity (% RH), FIG. 1) is listed as “deliquesces at high relative humidity”. Moreover, the water adsorption reversibility result in series [3] (up to 70% RH) was “reversible up to 70% RH”. Besides, the hygroscopicity classification entry in series [3] (up to 70% RH, criterion: hygroscopic = not less than 3.0% water increase at 75% RH for a week) is reported as “non-hygroscopic”. The hygroscopicity entry in series [3] (vapor sorption isotherm, FIG. 1) was “slightly hygroscopic”.
